Results reported in patent US20050282818A1, “Ubiquitin ligase inhibitors” (Rigel Pharmaceuticals, Inc., priority 2004, published 2005).

Assays:
H1299 cells = test: Cell proliferation PAD assay, H1299; type: cell-based; details: Homo sapiens, NCI-H1299, 3pt, 48 hours, read-out: H1299 3pt
Protocol: (§1) Cell lines used are available from American Type Culture Collection (ATCC), for example, cell cultures containing A549 (ATCC# CCL-185), HeLa (ATCC# CCL-2), HCT116 ATTC# CCL-247), and H1299 (ATCC# CRL-5803) cells were maintained in T175 flasks following the ATCC recommended media and handling procedures. […] A 20,000 cells/ml solution was made for plating. Cells were plated in black Packard 96 well plates by placing 100 μl per well (2,000 cells per well). […] The definitions of the cell types used are as follows: A549 is lung carcinoma; HI 299 is non-small cell lung carcinoma; HI 155 is non-small cell lung carcinoma; AsPC-1 is pancreatic adenocarcinoma; Caov-3 is ovarian adenocarcinoma; COLO 205 is colorectal adenocarcinoma; DLD-1 colorectal adenocarcinoma; HCT116 is colorectal carcinoma; DU 145 is prostate carcinoma; ES-2 is ovarian clear cell carcinoma; H460 is large cell lung carcinoma; HELA is cervical adenocarcinoma; MIA PaCa-2 is pancreatice carcinoma; OVCAR-3 is ovarian adenocarcinoma; OVCAR8 is ovarian carcinoma; PC3 is prostate adenocarcinoma; SK-OV-3 is ovarian adenocarcinoma; SU86.86 is pancreatic carcinoma; TOV-21G is avarian clear cell carcinoma; U2OS is bone osteosarcoma; is ASPC-I is pancreatic adenocarcinoma; BXPC-3 is pabcreatic adenocarcinoma; HL60 is promyeloblast promyelocytic leukemia; K562 is bone marrow chronic myelogenous leukemia; L1210 is mouse lymphocytic leukemia; MOLT3 is T lymphoblast acute lymphoblastic leukemia; MOLT4 is T lymphoblast acute lymphoblastic leukemia; SW620 is colorectal adenocarcinoma; THP-1 is monocyte acute monocytic leukemia; U937 is histiocytic lymphoma; and UACC-257 is melanoma.
(§2) Compounds and additional media were added 24 hours after cell plating. […] All compound testing was done in duplicate using 6.3 fold dilutions starting with 10 mM. […] Taxol and at least one additional control were run on all plates. Three microliters of the compound master plate were added to deep well blocks containing 750 μl of RPMI media. One hundred microliters were transferred from the compound/media deep well blocks to the plated cells resulting in a 500 fold dilution of the compounds. Cells were grown at 37° C., 5% CO2 for 48 hours.
(§3) Cells to be analyzed by photography were fixed and stained. One hundred microliters of media were removed and 100 μl of 9.3% formamide was added to each well. Plates were left on the benchtop for 45 minutes. A staining solution containing 1.55 μl of 1 mg/ml DAPI added to 18.75 ml PBS was warmed for 15 minutes at 37° C. The cells were aspirated prior to washing with 100 μl of PBS. Seventy microliters of PBS were aspirated and 170 μl of the DAPI solution were added to each well of fixed cells. Plates were left at room temperature for one hour then aspirated and washed twice with 100 μl of PBS. The stained cells were left at 4° C. for a minimum of 16 hours before photographic analysis with Array Scan II (Cellomics). Analysis of the photographic images to determine numbers of live cells (proliferation), apoptotic cells and dead cells, were according to the methods described in U.S. Utility patent application Ser. No. 10/652,440, which incorporated herein in its entirety.

A549 cells = test: Cell proliferation PAD assay, A549; type: cell-based; details: Homo sapiens, 3pt, 48 hours, read-out: A549 3pt
Protocol: as §1, §2, §3

Row | SMILES | IC50 (H1299 cells) [µM] | IC50 (A549 cells) [µM]
1 | COC(=O)c1ccc(C(=O)OC)c(NS(=O)(=O)c2cccc3nonc23)c1 [compound 63, dimethyl 2-[(2,1,3-benzoxadiazol-4-ylsulfonyl)amino]terephthalate] | ≥ 20 | ≥ 20
2 | O=[N+]([O-])c1ccc(NS(=O)(=O)c2cccc3nonc23)cc1 [compound 65, N-(4-nitrophenyl)-2,1,3-benzoxadiazole-4-sulfonamide] | ≥ 20 | ≥ 20
3 | O=S(=O)(Nc1ccc(N2CCOCC2)c(Cl)c1)c1cccc2nonc12 [compound 66, N-(3-chloro-4-morpholin-4-ylphenyl)-2,1,3-benzoxadiazole-4-sulfonamide] | ≥ 20 | ≥ 20
4 | O=S(=O)(Nc1ccccc1OC(F)(F)F)c1cccc2nonc12 [compound 67, N[2-(trifluoromethoxy)phenyl]2,1,3-benzoxadiazole-4-sulfonamide] | ≥ 20 | ≥ 20
5 | O=S(=O)(Nc1ccncc1)c1cccc2nonc12 [compound 68, N-pyridin-4-yl-2,1,3-benzoxadiazole-4-sulfonamide] | ≥ 20 | ≥ 20
6 | O=S(=O)(Nc1cccc2nsnc12)c1cc(F)c(F)c(F)c1 [compound 71, N-2,1,3-benzothiadiazol-4-yl-3,4,5-trifluorobenzenesulfonamide] | ≥ 20 | 1 to 20
7 | CCOC(=O)c1cccc(NS(=O)(=O)c2cccc3nonc23)c1 [compound 74, ethyl 3-[(2,1,3-benzoxadiazol-4-ylsulfonyl)amino]benzoate] | ≥ 20 | ≥ 20
8 | O=S(=O)(Nc1cccc2nsnc12)c1ccc(F)c(Cl)c1 [compound 76, N-2,1,3-benzothiadiazol-4-yl-3-chloro-4-fluorobenzenesulfonamide] | ≥ 20 | ≥ 20
9 | O=S(=O)(Nc1cccc2nsnc12)c1ccc(F)cc1Br [compound 77, N-2,1,3-benzothiadiazol-4-yl-2-bromo-4-fluorobenzenesulfonamide] | ≥ 20 | ≥ 20
10 | O=S(=O)(Nc1cccc2nsnc12)c1cc(Cl)c(O)c(Cl)c1 [compound 96, N-2,1,3-benzothiadiazol-4-yl-3,5-dichloro-4-hydroxybenzenesulfonamide] | ≥ 20 | ≥ 20
11 | O=S(=O)(Nc1cccc2nsnc12)c1cccc(Br)c1 [compound 97, N-2,1,3-benzothiadiazol-4-yl-3-bromoberizenesulfonamide] | ≥ 20 | ≥ 20

Now from value to compound:

Row | IC50 (H1299 cells) [µM] | IC50 (A549 cells) [µM] | SMILES
12 | ≥ 20 | ≥ 20 | Cc1ccc(NS(=O)(=O)c2cccc3nonc23)c(Cl)c1 [compound 54, N-(2-chloro-4-methylphenyl)-2,1,3-benzoxadiazole-4-sulfonamide]
13 | ≥ 20 | ≥ 20 | O=S(=O)(NCCN1CCCC1)c1cccc2nonc12 [compound 55, N-(2-pyrrolidin-1-ylethyl)-2,1,3-benzoxadiazole-4-sulfonamide]
14 | ≥ 20 | ≥ 20 | Cc1ccc(Cl)cc1NS(=O)(=O)c1cccc2nonc12 [compound 56, N-(5-chloro-2-methylphenyl)-2,1,3-benzoxadiazole-4-sulfonamide]
15 | ≥ 20 | ≥ 20 | O=S(=O)(Nc1ccccc1I)c1cccc2nonc12 [compound 57, N-(2-iodophenyl)-2,1,3-benzoxadiazole-4-sulfonamide]
16 | ≥ 20 | ≥ 20 | O=S(=O)(Nc1ccccn1)c1cccc2nonc12 [compound 58, N-pyridin-2-yl-2,1,3-benzoxadiazole-4-sulfonamide]
17 | ≥ 20 | ≥ 20 | O=S(=O)(NCCF)c1cccc2nonc12 [compound 59, N-(2-fluoroethyl)-2,1,3-benzoxadiazole-4-sulfonamide]
18 | ≥ 20 | ≥ 20 | O=S(=O)(Nc1cc(Cl)ccc1Cl)c1cccc2nonc12 [compound 60, N-(2,5-dichlorophenyl)-2,1,3-benzoxadiazole-4-sulfonamide]
